Drawing on a melting point compilation (Tetko et al.; mined from patent text by program, amines drawn as free bases though some values may be those of a salt), this text covers melting point for 89 molecules.

In general, melting point refers to the temperature, or range, at which the solid turns liquid.

With `NS(=O)(=O)c1ccc(-n2nc(C(F)(F)F)cc2-c2nc3ccc(Cl)cc3s2)cc1`, the melting point was in the range of 254 to 255 °C.

In the case of `Cc1ccc(Cn2c(NC3CCN(C)CC3)nc3cccnc32)o1`, the melting point came to 131 °C.

`O=C1CCN(C(=O)c2cccs2)CC1` showed a melting point of 81 to 83 °C.

As to `CN(C)C1CCc2c(ccc(O)c2C(N)=O)C1` (centres undefined), the melting point is 65 to 66 °C.

`COc1ccc2cc(-c3nc(-c4ccc(C)cc4)no3)c(=O)oc2c1` yielded a melting point of 227 °C.

The molecule `COc1ccc(NC(=O)C(=O)c2c3n(c4ccccc24)CCNCC3)cc1Cl` returned a melting point of 221 to 223 °C.

With `COc1ccc(C(=O)n2c3c(c4cc(F)ccc42)CC(C(=O)O)CC3)cc1` (centres undefined), the melting point is 197 to 198 °C.

Consider `COc1c(O)c(OC)c2c(=O)cc(-c3ccc(O)c(O)c3)oc2c1OC`, for which the melting point lay within 279 to 281 °C.

As for `Cn1cnc(COc2nn3c(-c4ccccc4)nnc3cc2-c2ccoc2)n1`, the melting point worked out at 241 °C.

The molecule `Nc1ccc(CS(=O)(=O)CCO)cc1CS(=O)(=O)CCO` showed a melting point of 183 to 185 °C.

On to `CC(C)Oc1ccc(-n2c(C(=O)NCC(=O)O)c(Cl)c3cc(Oc4ccc(C(F)(F)F)cc4)ccc32)cc1`, for which the melting point was 94 to 96 °C.

For `COC(=O)c1snc(-c2ccc(C#N)cc2)c1C(=O)OC`, the melting point fell in the range of 134 to 135 °C.

As for `CCCCCCCCCCCCCCCCCCOCc1ccc(C(=O)O)cc1OCCCCCCCCCCCCCCCCCC`, the melting point is 87 to 88 °C.

As for `CC(C)(C)[Si](C)(C)OC1CN(c2ccc([N+](=O)[O-])cc2F)C1`, the melting point fell in the range of 98.5 to 99.5 °C.

In turn, `O=C(O)Cc1ccc2ccn(C(=O)c3ccccc3)c2c1` gave a melting point of 113 to 115 °C.

Take `Nc1c(Br)cc(Br)c(O)c1Br`: the melting point was found to be 119 °C.

As to `Cc1cc(Cl)cc(C(=O)NC2(C)CC2)c1NC(=O)c1cc(Br)nn1-c1ncccc1Cl`, the melting point was greater than 250 °C.

Regarding `OC(CCc1c[nH]cn1)(c1ccccc1)c1ccccc1`, the melting point lay within 189 to 191 °C.

For `COC(C)(C)C(C#N)=NOCc1coc(-c2ccc(F)cc2)n1`, the melting point was 75 to 77 °C.

`Brc1nnc2n1C=Cc1ccccc1C2` returned a melting point of 169 to 170 °C.

In the case of `CC(=O)Oc1cccc(C=Cc2ccc3ccccc3n2)c1`, the melting point lay in the range of 86 to 87 °C.

The molecule `O=C(NCc1ccc(-c2n[nH]c3c2Cc2ccccc2-3)s1)N1CCOCC1` came in with a melting point of 240 to 247 °C.

As to `CC(CNS(=O)(=O)C(C)C)c1ccc(NC(=O)CCl)cc1` (centres undefined), the melting point is 138 °C.

Molecule `CC(Nc1cc(Br)ccc1[N+](=O)[O-])C(=O)O` (centres undefined) registered a melting point of 183 to 187 °C.

Turning to `Cc1ccc([PH](=O)c2ccc(C)cc2)cc1`, the melting point was determined as 93.7 °C.

The molecule `O=C(Nc1ccc(-n2nc(C(F)(F)F)cc2C(F)(F)F)cc1)c1cccc(Br)c1` gave a melting point of 158 to 160 °C.

Take `CCOc1ccccc1OCC(O)CNC(C)=CC(=O)c1ccc(C)nc1` (single isomer, unassigned; (-)): the melting point was 108 to 109 °C.

`O=[N+]([O-])c1ccc(Oc2ccccc2)nc1` displayed a melting point of 84 to 86 °C.

For the molecule `CSc1nn2c(O)cc(CN(C)C)nc2c1S(=O)(=O)c1ccccc1`, the melting point was greater than 220 °C.

`CNCCCNCCCSP(=O)(O)O` registered a melting point of 115 to 120 °C.

As to `O=c1cc(NCCN2CCN(c3ccccc3)CC2)cn[nH]1`, the melting point fell in the range of 147 to 149 °C.

As for `CC(C)(C)c1ccc([N+](=O)[O-])c(C(=O)O)c1`, the melting point was 137 to 139 °C.

`CCn1cc2c(n1)c(N)nc1ccccc12` showed a melting point of 240 to 241 °C.

In turn, `O=C1CNC(=O)C(CSC(c2ccccc2)(c2ccccc2)c2ccccc2)N1` (centres undefined) had a melting point of 225 to 227 °C.

For the molecule `CCOC(=O)c1ccc(NC=Nc2ccc3[nH]cc(CCN4C(=O)c5ccccc5C4=O)c3c2)cc1`, the melting point stood at 110 °C.

Molecule `O=C1C(=CN2CCOCC2)c2ccccc2N1c1cccc(Cl)c1` registered a melting point of 130 to 132 °C.

In the case of `Cc1cccc2c1-n1nnnc1SC2`, the melting point was 174 °C.

In the case of `CCOC(=O)COc1cc(OC)c2c(c1[N+](=O)[O-])OC1(CCCCC1)CC2=O`, the melting point fell in the range of 142 to 143 °C.

`CCCCCCCCCCCCCCCCCC(=O)Oc1cc(OC)cc(OC)c1C(=O)C=Cc1ccc(OC)cc1` displayed a melting point of 65 to 66 °C.

`CCc1cc(Oc2ccc(S(C)(=O)=O)nc2)cc2cc(C3=NCC(CC(=O)NC)S3)[nH]c12` (centres undefined): the melting point fell in the range of 189 to 190 °C.

As to `O=C(c1ccc(SC2SCC(O)C(O)C2O)cc1)C(F)(F)F` (centres undefined), the melting point is 133 to 134 °C.

On to `OCc1cnc2ccc(F)cc2c1O`, for which the melting point was 310 to 315 °C.

Turning to `CC(=O)c1cc2c(s1)Oc1ccccc1N=C2N1CCN(C)CC1`, the melting point is 143 to 144 °C.

`CC(=O)Nc1cccc2c1C(=O)c1c-2n[nH]c1-c1ccncc1`: the melting point was greater than 300 °C.

In turn, `CCCCN1CCC(NS(=O)(=O)c2ccc(NC(C)=O)cc2)CC1` gave a melting point of 174 to 175 °C.

`CCOP(=O)(OCC)c1cnc2ccc(C(F)(F)F)cc2c1` registered a melting point of 69 °C.

Consider `CC(C)(C)OC(=O)Nc1ccc(-c2cccc(F)c2)cc1[N+](=O)[O-]`, for which the melting point lay in the range of 93 to 96 °C.

Molecule `O=C(O)c1ccc2c(c1)Sc1ccc(F)cc1C(=O)C2` had a melting point of 289 to 291 °C.

The molecule `CSC(=N[N+](=O)[O-])NCc1cnc(Cl)s1` yielded a melting point of 162 to 165 °C.

`CC(=O)Nc1ccc2oc(C(=O)O)cc2c1` had a melting point greater than 300 °C.

Turning to `NC(=O)C1=NN(c2cccc(COc3ccccc3)c2)C(c2ccccc2F)N1` (centres undefined), the melting point is 176 to 178 °C.

The molecule `NC(=O)c1ncn(C2OC(CO)C(O)C2O)c1C#Cc1ccccc1` (centres undefined) yielded a melting point of 168 to 169 °C.

As for `O=C(OSc1ccccn1)c1ccc(Cc2ccc(F)cc2)o1`, the melting point was in the range of 88 to 89 °C.

Molecule `COc1cc(N)c(Cl)cc1C(=O)CCC1CCN(C(=O)OC(C)(C)C)CC1` displayed a melting point of 133 to 134 °C.

The molecule `Cn1cnnc1C(N)(c1ccc(Cl)cc1)c1ccc2c(c1)c(-c1cccc(Cl)c1)nc1nnnn12` (centres undefined) showed a melting point of 220 °C.

`N#Cc1c(N)[nH]c2ccc(Sc3ccc(O)cc3)cc12` came in with a melting point of 241 to 242 °C.

Regarding `Cc1ccc2c(c1)CN(C(=O)NCCc1ccc(S(=O)(=O)NC(=O)NC3CCCCC3)cc1)C2=O`, the melting point is 216 to 218 °C.

With `CC(C)(O)COc1ccc(/C=C/C(=O)O)c(Oc2ncc(C(F)(F)F)cc2Cl)c1`, the melting point was 126 to 128 °C.

Consider `O=C1CCCCCCCCCCCCC1`, for which the melting point was 56 °C.

Turning to `O=C1NCCCN1C1CCN(CC[C@H](c2ccc(Cl)c(Cl)c2)[C@@H](O)c2ccnn2-c2ccccc2)CC1` (racemic), the melting point is 174 to 176 °C.

`Cn1ncc2nc3c(c(O)c21)CCCC3`: the melting point was greater than 300 °C.

As for `CCCCCN1C(=O)C(=O)c2ccccc21`, the melting point was in the range of 50 to 51 °C.

Regarding `CNC(=S)C1=CC(CF)(CF)Oc2ccc([N+](=O)[O-])cc21`, the melting point is 134 to 135 °C.

`CN1CCC(c2c[nH]c3ccc(NS(=O)(=O)c4cccc5ccccc45)cc23)CC1` had a melting point of 254 to 256 °C.

Consider `COc1ccc(CCC(=NNc2ccc(C3=NNC(=O)CC3C)cc2)c2ccc(O)cc2O)cc1OC` (centres undefined), for which the melting point is 135 to 140 °C.

`O=C(O)c1c(Cc2cc3c(cc2Cl)OCO3)c(-c2ccccn2)nn1CC1CCC(C(=O)O)CC1` (centres undefined) had a melting point of 261 °C.

The molecule `Nc1nc2c(s1)CCN(C/C=C\c1cccnc1)CC2` returned a melting point of 125 to 126 °C.

Take `CC(=O)N1CCc2nc3cccc(N)c3c(C)c2CC1`: the melting point came to 150 °C.

On to `O=CC(=Cc1ccc(OCc2ccc(Cl)cc2)cc1)C(C=O)=Cc1ccc(OCc2ccc(Cl)cc2)cc1`, for which the melting point was 208 to 209 °C.

In turn, `COc1cc2c(cc1OC)CC(=O)NC(=O)C2` had a melting point of 235 °C.

Molecule `COc1ccc(CCN)cc1S(N)(=O)=O` displayed a melting point of 164 to 167 °C.

In the case of `CC(SC1COC(c2ccc(C(=O)Nc3ccc(C#N)c(C#N)c3)cc2)OC1)C(O)(Cn1cncn1)c1ccc(F)cc1F` (centres undefined), the melting point was determined as 182 °C.

Take `COC(=O)C[C@H](O)C[C@H](O)CCc1c(-c2ccc(F)cc2)c(-c2ccc(F)cc2)c(C(=O)Nc2cccc(C(=O)N(C)C)c2)n1C(C)C`: the melting point lay in the range of 95 to 98 °C.

On to `N#CCc1ccc(-c2ccc(C(CC3CCOCC3)c3ccc(S(=O)(=O)C4CC4)cc3)[nH]2)nc1` (centres undefined), for which the melting point is 139 to 141 °C.

In turn, `CS(=O)(=O)c1ccc(C(CC2CCCC2)C(=O)Nc2nccs2)cc1S(C)(=O)=O` (centres undefined) came in with a melting point of 104 to 107 °C.

Molecule `CCn1cc(C(=O)O)c(=O)c2c(F)c(F)c(F)c(F)c21` had a melting point of 229 to 230 °C.

In the case of `Cc1noc(-c2ncn3c2[C@@H]2CCCN2C(=O)c2c(Cl)cccc2-3)n1`, the melting point is 230 to 231 °C.

On to `CCCC(=O)NC1CCc2ccccc2C1` (centres undefined), for which the melting point is 78 to 81 °C.

Molecule `CCCCC1=NC(=NOC(=O)NC)SC1(C)C` had a melting point of 128 to 130 °C.

Consider `CCOC(=O)C1=Cc2cc(Cl)cc(-c3ccccc3)c2OC1C(F)(F)F` (centres undefined), for which the melting point lay in the range of 196 to 198 °C.

`CS(=O)(=O)C(=C1CN(C(c2ccccc2)c2ccccc2)C1)c1cccc(Cl)c1Cl` gave a melting point of 201 °C.

In turn, `CNc1cc(SCC(C)O)c(N)cc1[N+](=O)[O-]` (centres undefined) yielded a melting point of 152 °C.

Molecule `O=C(NCCCC(NC(=O)c1ccccc1)C(O)C(F)(F)F)c1ccccc1` (centres undefined) returned a melting point of 103 °C.

In the case of `O=C(O)CCc1cn(Cc2ccc3cc(OCc4cccnc4)ccc3c2)cc1-c1ccccc1`, the melting point fell in the range of 158 to 159 °C.

`COC(=O)c1c(SC)c2cc(OC)ccc2n1C` yielded a melting point of 89 to 91 °C.

For the molecule `Brc1cnc(SCc2ccccc2)nc1SCc1ccccc1`, the melting point was in the range of 66 to 67 °C.

Consider `Cc1ccc(-c2cc3ccc4ccccc4c3o2)cc1`, for which the melting point lay in the range of 97 to 100 °C.

`COc1cc2c(cc1OC)-c1c([N+](=O)[O-])sc(=N)n1CC2` showed a melting point of 220 to 221 °C.

In turn, `CN1C(=O)CCC(C)(C)c2cc(Nc3ncc(Cl)c(Nc4ccccc4S(=O)(=O)N(C)C)n3)ccc21` came in with a melting point of 198 to 200 °C.
